Patent US20200325177A1, “METHODS OF MAKING STREPTOGRAMIN COMPOSITIONS AND THE USE THEREOF” (THE REGENTS OF THE UNIVERSITY OF CALIFORNIA, priority 2017, published 2020)
Values after ≈ are worked out from the molar mass of the structure shown. Read-outs that look alike come from different tables or passages of the source.

Tests used:
Assay type in all cases: cell-based
E. faecalis = assay: MIC, Gram-positive bacteria: E. faecalis; settings: Enterococcus faecalis, column 1, read-out: Minimal Inhibitory Concentration (MIC) E. faecalis
E. faecium ATCC 35667 = assay: MIC, Gram-positive bacteria: E. faecium ATCC 35667; settings: Enterococcus faecium, ATCC35667, column 2, read-out: Minimal Inhibitory Concentration (MIC) E. faecium ATCC 35667
[1] = system: P. aeruginosa MDR clinical isolate; assay: MIC, Gram-negative bacteria: P. aeruginosa MDR clinical isolate; settings: Pseudomonas aeruginosa, read-out: Minimal Inhibitory Concentration (MIC) P. aeruginosa MDR clinical isolate
[2] = system: S. aureus Linezolid-resistant; cfr; assay: MIC, Gram-positive bacteria: S. aureus Linezolid-resistant; cfr; settings: Staphylococcus aureus, column 9, read-out: Minimal Inhibitory Concentration (MIC) S. aureus Linezolid-resistant
Gram-Negative Organisms = assay: microbe, parasite or virus in culture
[3] = system: K. pneumoniae multidrug-resistant; assay: MIC, Gram-negative bacteria: K. pneumoniae multidrug-resistant; settings: Klebsiella pneumoniae, read-out: Minimal Inhibitory Concentration (MIC) K. pneumoniae multidrug-resistant
S. aureus = assay: MIC, Gram-positive bacteria: S. aureus (strains not named); settings: Staphylococcus aureus, read-out: Minimal Inhibitory Concentration (MIC) S. aureus
S. pneumoniae = assay: MIC, Gram-positive bacteria: S. pneumoniae; settings: Streptococcus pneumoniae, column 10, read-out: Minimal Inhibitory Concentration (MIC) S. pneumoniae
[4] = system: S. aureus Vat A streptogramin; assay: MIC, Gram-positive bacteria: S. aureus Vat A streptogramin; settings: Staphylococcus aureus; Gram-positive; column 5; read-out: Minimal Inhibitory Concentration (MIC) S. aureus Vat A streptogramin
P. aeruginosa ATCC 27853 = assay: MIC, Gram-negative bacteria: P. aeruginosa ATCC 27853; settings: Pseudomonas aeruginosa, ATCC27853, read-out: Minimal Inhibitory Concentration (MIC) P. aeruginosa ATCC 27853
E. faecium VRE; vanA = assay: MIC, Gram-positive bacteria: E. faecium VRE; vanA; settings: Enterococcus faecium, column 3, read-out: Minimal Inhibitory Concentration (MIC) E. faecium VRE
H. influenzae ATCC 49247 = assay: MIC, Gram-negative bacteria: H. influenzae ATCC 49247; settings: Haemophilus influenzae, ATCC49247, read-out: Minimal Inhibitory Concentration (MIC) H. influenzae ATCC 49247
[5] = Acinetobacter baumannii, ATCC19606, read-out: Minimal Inhibitory Concentration (MIC), A. baumannii ATCC 19606
[6] = Escherichia coli, ATCC25922, read-out: Minimal Inhibitory Concentration (MIC), E. coli ATCC 25922
[7] = Escherichia coli, read-out: Minimal Inhibitory Concentration (MIC), E. coli BAS2006, OMP C, OMP F
[8] = Escherichia coli, read-out: Minimal Inhibitory Concentration (MIC), E. coli olC efflux defective
[9] = Escherichia coli, read-out: Minimal Inhibitory Concentration (MIC), E. coli permeability mutant BAS1314, IMP4213ZAB::TN10
[10] = Escherichia coli, read-out: Minimal Inhibitory Concentration (MIC), E. coli ΔompC768, KanR insert
[11] = Klebsiella pneumoniae, ATCC43816, read-out: Minimal Inhibitory Concentration (MIC), K. pneumoniae ATCC 43816
[12] = first unnamed S. aureus column (c4)
[13] = fourth unnamed S. aureus column (c8)
[14] = second unnamed S. aureus column (c6)
[15] = third unnamed S. aureus column (c7)

| Structure (SMILES) | MIC (E. faecalis) [µg/mL] | MIC (E. faecium ATCC 35667) [µg/mL] | MIC [1] [µg/mL] | MIC [2] [µg/mL] | MIC (Gram-Negative Organisms; [5]) [µg/mL] | MIC (Gram-Negative Organisms; [6]) [µg/mL] | MIC (Gram-Negative Organisms; [7]) [µg/mL] | MIC (Gram-Negative Organisms; [8]) [µg/mL] | MIC (Gram-Negative Organisms; [9]) [µg/mL] | MIC (Gram-Negative Organisms; [11]) [µg/mL] | MIC [3] [µg/mL] | MIC (S. aureus; [12]) [µg/mL] | MIC (S. aureus; [13]) [µg/mL] | MIC (S. aureus; [14]) [µg/mL] | MIC (S. aureus; [15]) [µg/mL] | MIC (S. pneumoniae) [µg/mL] | MIC [4] [µg/mL] | MIC (P. aeruginosa ATCC 27853) [µg/mL] | MIC (E. faecium VRE; vanA) [µg/mL] | MIC (H. influenzae ATCC 49247) [µg/mL] | also measured |
| --- | --- | --- | --- | --- | --- | --- | --- | --- | --- | --- | --- | --- | --- | --- | --- | --- | --- | --- | --- | --- | --- |
| CC1=C\[C@@H](O)CC(=O)Cc2nc(co2)C(=O)N[C@H](Cc2ccc(O)cc2)C(=O)O[C@H](C(C)C)[C@H](C)/C=C/C(=O)NC\C=C\1 [SA0202097] | > 64 | > 64 | > 64 | > 64 | > 64 | > 64 | > 64 | 32 (≈ 53.9 µM) | 32 (≈ 53.9 µM) | > 64 | > 64 | > 64 | > 64 | > 64 | > 64 | 64 (≈ 108 µM) | > 64 | > 64 | > 64 | > 64 | MIC (Gram-Negative Organisms; [10]): > 64 µg/mL |
| CC1=C\[C@@H](O)CC(=O)Cc2nc(co2)C(=O)N2CCC[C@@H]2C(=O)O[C@H](C(C)(C)C)[C@H](C)/C=C/C(=O)NC\C=C\1 [SA0306004] | > 64 | 32 (≈ 59.1 µM) | > 64 | > 64 | > 64 | > 64 | 4 (≈ 7.38 µM) | 4 (≈ 7.38 µM) | 4 (≈ 7.38 µM) | > 64 | > 64 | 32 (≈ 59.1 µM) | 32 (≈ 59.1 µM) | 64 (≈ 118 µM) | 64 (≈ 118 µM) | 64 (≈ 118 µM) | > 64 | > 64 | > 64 | > 64 | – |
| CC1=C\[C@@H](O)C[C@@H](F)Cc2nc(co2)C(=O)N2CCC[C@@H]2C(=O)O[C@H](C(C)C)[C@H](C)/C=C/C(=O)NC\C=C\1 [flopristin, reference compound] | > 64 | 0.5 (≈ 0.941 µM) | > 64 | > 64 | > 64 | 32 (≈ 60.2 µM) | 0.25 (≈ 0.47 µM) | 1 (≈ 1.88 µM) | < 0.06 | > 64 | > 64 | 0.5 (≈ 0.941 µM) | 0.5 (≈ 0.941 µM) | 0.5 (≈ 0.941 µM) | 1 (≈ 1.88 µM) | 2 (≈ 3.76 µM) | 8 (≈ 15 µM) | > 64 | 2 (≈ 3.76 µM) | 0.25 (≈ 0.47 µM) | MIC (Gram-Negative Organisms; [10]): 64 µg/mL (≈ 120 µM) |
| C[C@H]1COc2c(N3CCN(C)CC3)c(F)cc3c(=O)c(C(=O)O)cn1c23 [levofloxacin] | 1 (≈ 2.77 µM) | 4 (≈ 11.1 µM) | > 8 | 8 (≈ 22.1 µM) | 0.25 (≈ 0.692 µM) | 0.015 (≈ 0.0415 µM) | – | – | – | 0.03 (≈ 0.083 µM) | 1 (≈ 2.77 µM) | 0.25 (≈ 0.692 µM) | 2 (≈ 5.53 µM) | 0.12 (≈ 0.332 µM) | 0.25 (≈ 0.692 µM) | 0.5 (≈ 1.38 µM) | 1 (≈ 2.77 µM) | 2 (≈ 5.53 µM) | > 8 | 0.03 (≈ 0.083 µM) | MIC (Gram-Negative Organisms; [10]): 0.015 µg/mL (≈ 0.0415 µM) |
| CC1=C\[C@@H](O)CC(=O)Cc2nc(co2)C(=O)N[C@H](C)C(=O)O[C@H](C(C)C)[C@H](C)/C=C/C(=O)NC\C=C\1 [madumycin I, Madumycin I, reference compound] | 32 (≈ 63.8 µM) | 2 (≈ 3.99 µM) | > 64 | 64 (≈ 128 µM) | > 64 | > 64 | 0.5 (≈ 0.997 µM) | 2 (≈ 3.99 µM) | 0.25 (≈ 0.498 µM) | > 64 | > 64 | 8 (≈ 15.9 µM) | 4 (≈ 7.97 µM) | 8 (≈ 15.9 µM) | 8 (≈ 15.9 µM) | 4 (≈ 7.97 µM) | 64 (≈ 128 µM) | > 64 | 4 (≈ 7.97 µM) | 8 (≈ 15.9 µM) | – |
| CC1=C\[C@@H](O)C[C@@H](O)Cc2nc(co2)C(=O)N[C@H](C)C(=O)O[C@H](C(C)C)[C@H](C)/C=C/C(=O)NC\C=C\1 [madumycin II, Madumycin II, reference compound] | > 64 | 0.5 (≈ 0.993 µM) | > 64 | > 64 | > 64 | > 64 | 1 (≈ 1.99 µM) | 2 (≈ 3.97 µM) | 0.5 (≈ 0.993 µM) | > 64 | > 64 | 8 (≈ 15.9 µM) | 8 (≈ 15.9 µM) | 8 (≈ 15.9 µM) | 16 (≈ 31.8 µM) | 4 (≈ 7.94 µM) | > 64 | > 64 | 8 (≈ 15.9 µM) | 1 (≈ 1.99 µM) | – |
| CC1=C\[C@@H](O)CC(=O)Cc2nc(co2)C(=O)N2CCC=C2C(=O)O[C@H](C(C)C)[C@H](C)/C=C/C(=O)NC\C=C\1 [virginiamycin M1, Virginiamycin M1, reference compound] | 32 (≈ 60.9 µM) | 2 (≈ 3.81 µM) | > 64 | > 64 | > 64 | > 64 | > 64 | 2 (≈ 3.81 µM) | 0.25 (≈ 0.476 µM) | > 64 | > 64 | 4 (≈ 7.61 µM) | 2 (≈ 3.81 µM) | 2 (≈ 3.81 µM) | 8 (≈ 15.2 µM) | 4 (≈ 7.61 µM) | 32 (≈ 60.9 µM) | > 64 | 4 (≈ 7.61 µM) | 1 (≈ 1.9 µM) | – |
